≈ marks a conversion by molar mass, not a printed value.
Key:
CMT12 cell line = experiment: Annexin V-FITC apoptosis assay, CMT12; format: cell-based, canine; conditions: 15 μg/mL CBD, VC 10.9±2.0%
Protocol: Apoptosis after 4 and 8 hours treatment is measured using Annexin-V staining (Invitrogen Annexin V-FITC staining kit, Carlsbad, California). Briefly, cells are detached with Accumax (Innovative Cell Technologies, San Diego, California), collected and centrifuged for 10 m at 1000 g at 4° C. The pellet is washed once with PBS before resuspension in Annexin Binding Buffer (ABB; 10 mM HEPES, 140 mM NaCl, 2.5 mM CaCl2, pH 7.4) at a density of approximately 1×10^6 cell/mL. […] After the incubation, ABB is added to the cell suspension and kept on ice until fluorescence is measured with the BD FACScalibur flow cytometer using an argon laser (BD Biosciences, Ashland, Oregon). Ten thousand events are collected per sample. Analysis is performed with the FlowJo software (Version 10.7.1. Becton, Dickinson, Ashland, Oregon) by first gating based on the forward- and side-scatter characteristics for each cell line followed by Annexin V-FITC positive cells. Negative fluorescence controls are unstained cells. Three independent replicates are examined for each treatment.

[1] = test system: Abrams osteosarcoma cell line; experiment: 48 hours MTT proliferation assay, Abrams; format: cell-based, canine; conditions: pure compound
Protocol: (§1) 3-(4,5-Dimethylthaizol-2-yl)-2,5-diphenyltetrazolium bromide (MTT) assays are performed on all previously described cell lines; CMT12, HMPOS, D17, Abrams and 17-71. […] Cells are treated with vehicle (methanol or ethanol/DMSO mix) or various concentrations of the CBD, CBDA or CBD-rich hemp extract ranging from 0.42 to 20 μg/mL in serial dilution for 48 hours. MTT assays are performed after 48 hours of treatment by adding 20 μL of MTT dye ([…] filtered 5 mg/mL in phosphate-buffered saline [PBS]) to each well and incubating at 37° C. in 5% CO2 for 2 hours. The media is then aspirated, washed once with 200 μL of PBS and then solubilized in 200 μL of ethanol. Immediate analysis of the optical density of each well is performed using a spectrophotometric plate reader (Epoch; Biotek, Winooski, Vermont) at a wavelength of 570 nm as previously described (e.g., Vega-Avila E and Pugsley M K, An overview of colorimetric assay methods used to assess survival or proliferation of mammalian cells, Proc West Pharmacol Soc., 2011, 54, pp. 10-14 which is incorporated herein by reference in its entirety). The percent proliferating cells of control for each concentration is averaged and reported as a mean+/—SD from triplicate wells over three experiments.
(§2) For CBD, CBDA and hemp extract concentrations needed to obtain a 50% inhibition of cell proliferation (IC50) are then calculated across experiments by Probit analysis using XLFit5 software (IDBS, Guildford, United Kingdom) for reporting the results for each cell line.

[2] = Single-dose oral pharmacokinetics of CBD in healthy dogs; format: in vivo; conditions: dog, serum
Protocol: (§3) The single-dose oral pharmacokinetics of CBD and an assessment of safety and adverse effects during 12-week administration using a hemp-based product in healthy dogs and cats were determined in this study. […] More details about this study can be found in “Deabold, K. A.; Schwark, W. S.; Wolf, L.; Wakshlag, J. J., Single Dose Pharmacokinetics and Preliminary Safety Assessment with Use of CBD-Rich Hemp Nutraceutical in Healthy Dogs and Cats, Animals 2019, 9, 832, DOI 10.3390/ani9100832,” which is incorporated herein by reference in its entirety.

[3] = test system: 17-71 B cell lymphoma cell line; experiment: 48 hours MTT proliferation assay, 17-71; format: cell-based, canine; conditions: pure compound
Protocol: as §1, §2

[4] = Single-dose oral pharmacokinetics of CBD in healthy cats; format: in vivo; conditions: serum, single oral dose 2 mg/kg total CBD/CBDA
Protocol: as §3

CMT12 and D17 cells = experiment: LC3A/B immunofluorescence; format: cell-based, canine; conditions: 10 μg/mL CBD, 6 hours
Protocol: CMT12 and D17 adherent cell lines are split into Nunc chamber slides (ThermoFisher Scientific, Rochester, New York) and the cells that are 70% confluent are treated for 6 hours with either methanol control or 10 μg/mL of CBD. Cells are fixed with 4% paraformaldehyde for 1 hour and then permeabilized with PBS containing 0.1% Triton X-100 for 30 minutes. Cells are then washed with PBS and incubated with bovine serum albumin (Sigma Aldrich, St. Louis, Missouri) for 30 minutes and then goat anti-serum (Vector Labs, Burlingame, California) for 1 hour and then washed twice with PBS for 10 minutes while rocking at room temperature. […] Coverslips are mounted using Vectrashield DAPI mounting media (Vector Labs, Burlingame, California) and the images are captured at the same fluorescence intensity for each image at 400 or 600 magnification and processed using an Olympus fluorescent microscope and DP controller software (Olympus Corp., Center Valley, Pennsylvania).

Compound: C=C(C)[C@@H]1CCC(C)=C[C@H]1c1c(O)cc(CCCCC)cc1O [CBD, cannabidiol]
- Annexin V positive staining cells (CMT12 cell line; 4 hours): 15.7±2.2%
- Annexin V positive staining cells (CMT12 cell line; 8 hours): 21.5±2.5%
- IC50 ([1]; Canis lupus familiaris, read-out: IC50 (Probit)): 4.1 µg/mL (≈ 13 µM)
- concentrations that significantly diminished proliferation vs vehicle control ([1]; P<0.05): ≥ 5 µg/mL
- Cmax ([2]; single oral dose 2 mg/kg total CBD/CBDA (1 mg/kg CBD and 1 mg/kg CBDA), read-out: mean maximum CBD concentration (Cmax)): 301 ng/mL
- AUC ([2]; single oral dose 2 mg/kg total CBD/CBDA, read-out: area under the curve (AUC)): 1300 ng·h/mL
- Tmax ([2]; single oral dose 2 mg/kg total CBD/CBDA, read-out: time to maximal concentration (Tmax)): 1.4 h
- IC50 ([3]; Canis lupus familiaris, B-cell, read-out: IC50 (Probit)): 2.5 µg/mL (≈ 7.95 µM)
- concentrations that significantly diminished proliferation vs vehicle control ([3]; P<0.05): ≥ 2.5 µg/mL
- AUC ([4]; read-out: area under the curve (AUC)): 164 ng·h/mL
- Cmax ([4]; read-out: mean maximum CBD concentration (Cmax)): 43 ng/mL
- Tmax ([4]; read-out: time to maximal concentration (Tmax)): 2 h
- LC3A/B immunofluorescence (CMT12 and D17 cells): numerous discrete punctate intensely staining vesicles
